The source of these data is PMC9697799, “(E)-N-(3-(1-(2-(4-(2,2,2-Trifluoroacetamido)benzoyl)hydrazono)ethyl)phenyl)nicotinamide: A Novel Pyridine Derivative for Inhibiting Vascular Endothelial Growth Factor Receptor-2: Synthesis, Computational, and Anticancer Studies” (Molecules, 2022).

Structures are written as SMILES.

In this test the target is T1, VEGFR-2 (Homo sapiens, UniProt P35968).
T1 construct: gene KDR
In words: in vitro VEGFR-2 inhibition, Human VEGFR-2 ELISA kit. The format is biochemical. (In general: ELISA stands for enzyme-linked immunosorbent assay.)

T1 sequence (P35968 20-1356): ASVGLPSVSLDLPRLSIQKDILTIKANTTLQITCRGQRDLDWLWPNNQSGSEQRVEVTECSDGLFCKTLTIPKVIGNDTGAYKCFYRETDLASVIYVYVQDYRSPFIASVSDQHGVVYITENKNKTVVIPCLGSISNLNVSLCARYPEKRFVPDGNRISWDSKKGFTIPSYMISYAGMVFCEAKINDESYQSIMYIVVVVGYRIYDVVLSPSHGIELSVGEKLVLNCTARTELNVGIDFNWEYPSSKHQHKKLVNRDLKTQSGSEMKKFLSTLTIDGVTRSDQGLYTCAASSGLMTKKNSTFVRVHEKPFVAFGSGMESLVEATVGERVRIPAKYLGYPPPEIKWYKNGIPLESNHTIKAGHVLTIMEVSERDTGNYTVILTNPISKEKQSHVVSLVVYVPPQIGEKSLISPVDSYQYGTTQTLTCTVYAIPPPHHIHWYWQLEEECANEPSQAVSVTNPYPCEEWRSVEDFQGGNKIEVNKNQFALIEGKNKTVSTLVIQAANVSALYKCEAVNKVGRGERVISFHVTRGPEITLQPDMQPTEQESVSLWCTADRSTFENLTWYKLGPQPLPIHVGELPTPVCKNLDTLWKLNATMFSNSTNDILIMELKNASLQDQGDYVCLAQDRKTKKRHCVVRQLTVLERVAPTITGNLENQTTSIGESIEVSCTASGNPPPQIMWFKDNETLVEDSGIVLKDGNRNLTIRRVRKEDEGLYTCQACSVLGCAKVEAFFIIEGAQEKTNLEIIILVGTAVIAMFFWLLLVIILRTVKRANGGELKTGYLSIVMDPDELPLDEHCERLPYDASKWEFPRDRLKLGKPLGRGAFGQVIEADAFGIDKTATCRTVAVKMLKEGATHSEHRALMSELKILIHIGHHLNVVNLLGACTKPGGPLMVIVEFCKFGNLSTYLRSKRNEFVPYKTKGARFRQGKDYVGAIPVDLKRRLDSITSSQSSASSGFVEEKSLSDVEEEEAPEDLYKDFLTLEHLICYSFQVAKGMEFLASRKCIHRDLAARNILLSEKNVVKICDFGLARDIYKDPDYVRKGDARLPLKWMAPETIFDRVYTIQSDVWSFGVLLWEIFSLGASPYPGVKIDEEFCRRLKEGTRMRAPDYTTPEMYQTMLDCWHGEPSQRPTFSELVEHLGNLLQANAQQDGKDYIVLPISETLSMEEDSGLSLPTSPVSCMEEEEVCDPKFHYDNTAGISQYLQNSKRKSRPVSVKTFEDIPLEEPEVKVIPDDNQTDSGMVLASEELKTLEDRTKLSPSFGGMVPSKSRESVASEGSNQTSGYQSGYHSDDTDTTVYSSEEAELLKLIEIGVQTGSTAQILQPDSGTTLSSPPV

For orientation: IC50 means the concentration at which inhibition is half-maximal. A higher IC50 goes with weaker potency in that assay. `C/C(=N\NC(=O)c1ccc(NC(=O)C(F)(F)F)cc1)c1cccc(NC(=O)c2cccnc2)c1` [compound 10, (E)-N-(3-(1-(2-(4-(2,2,2-Trifluoroacetamido)benzoyl)hydrazono)ethyl)phenyl)nicotinamide] had an IC50 of 65.8 nM.
